Patent US11315685B2, “Method and system for predicting optimal epilepsy treatment regimes” (UCB BIOPHARMA SPRL, priority 2017, dated 2022)

System: epilepsy patients
Assay: treatment stability of AED monotherapy in the one year evaluation period (medical claims data)
Format: in vivo
Conditions: percentage of patients for which the treatment worked based on the clinician's recommendation; stable = monotherapy for at least 80% of the one year evaluation period without switching; adult epilepsy patients
Text: Step 18 may also include a substep 18e of filtering patients according to a defined target variable indicating AED treatment regime efficacy. In some preferred embodiments, the target variable is treatment stability. An aim of the present disclosure is to measure the efficacy of treatment regimens consisting of one or more AEDs. One way of measuring the efficacy of treatment would be to monitor the patient's progress with respect to seizure frequency before and after treatment. A reduction in the number of seizures would imply that the regimen is effective. […] Accordingly, method 10 defines a proxy for treatment effectiveness. Based on input from domain experts and clinicians, method 10 uses treatment stability as an indicator of the effectiveness of a particular treatment. In some preferred embodiments, a treatment regimen is considered stable for a patient if the patient satisfies a treatment change criteria and a minimum coverage criteria. […] The minimum coverage criteria is satisfied if the patient complies with the treatment regimen which has been prescribed for at least a predetermined percentage of the evaluation period. In one preferred embodiment, the minimum coverage criteria is satisfied if the patient complies with the treatment regimen which has been prescribed for at least 80% evaluation period.
If the MPR is greater than 80%, the patient can be determined to be stable for that drug.
For the unstable outcome, a treatment change occurs during the evaluation period—i.e., within […] the index date at which a first treatment regimen R1 is prescribed—in the form of a second treatment regimen R2. For the stable outcome, a treatment change—i.e., the second regimen R2—occurs after the evaluation period.
In this embodiment, for simplicity, the three aforementioned treatment categories—i.e., ADD, SWITCH and NEW—are not differentiated between when defining the index date and, in contrast to the technique in Devinsky et al., all medication claims for a patient in the baseline period before the AED-specific index date are used to train the AED-specific predictive model for the patient. In other embodiments, the treatment categories can be analyzed separately to assess the efficacy of a treatment regimen in different scenarios. In this embodiment, predictive models are built only for monotherapies, instead of for both monotherapies and combination therapies. For a particular AED, all the adult patients who have been prescribed the AED, have at least 1 year of medical history before the prescription and have at least one year of evaluation period after prescription are analyzed. As mentioned above, this subset of patients constitutes the cohort for the predictive model for the AED being analyzed and the target variable is treatment stability.
The control patients refer to the number of patients which switched to treatments other than the one being analyzed in the evaluation window and were considered unstable on that treatment regimen. The percentage baseline success rate refers to the percentage of patients for which the treatment worked based on the clinician's recommendation. The AUC refers to the area under the ROC curve or the C-statistic which is the ratio of the true positive rate (TPR) and the false positive rate (FPR) for different values of the threshold. This ratio reflects the performance of the model since a higher AUC would imply that higher TPR was achieved and more true positives were obtained than false positives.

Compound	Percentage Baseline Success Rate
CC[C@@H](C(N)=O)N1CCCC1=O [LEVETIRACETAM, Levetiracetam]	54.99
NCC1(CC(=O)O)CCCCC1 [GABAPENTIN, Gabapentin]	35.69
O=C1Nc2ccc(Cl)cc2C(c2ccccc2Cl)=NC1O (stereo not drawn) [LORAZEPAM, Lorazepam]	25.28
COC[C@@H](NC(C)=O)C(=O)NCc1ccccc1 [LACOSAMIDE, Lacosamide]	37.73
NS(=O)(=O)Cc1noc2ccccc12 [ZONISAMIDE, Zonisamide]	42.95
NC(=O)N1c2ccccc2C=Cc2ccccc21 [CARBAMAZEPINE]	54.76
CN1C(=O)CN=C(c2ccccc2)c2cc(Cl)ccc21 [DIAZEPAM, Diazepam]	25.22
O=C1CN=C(c2ccccc2Cl)c2cc([N+](=O)[O-])ccc2N1 [CLONAZEPAM, Clonazepam]	30.98
CCC1(c2ccccc2)C(=O)NCNC1=O [PRIMIDONE, Primidone]	48.94
Nc1nnc(-c2cccc(Cl)c2Cl)c(N)n1 [LAMOTRIGINE, Lamotrigine]	53.32
CC(C)C[C@H](CN)CC(=O)O [PREGABALIN, Pregabalin]	28.60
CCC1(c2ccccc2)C(=O)NC(=O)NC1=O [PHENOBARBITAL, Phenobarbital]	55.76
NC(=O)N1c2ccccc2CC(=O)c2ccccc21 [OXCARBAZEPINE, Oxcarbazepine]	52.83
O=C1NC(=O)C(c2ccccc2)(c2ccccc2)N1 [PHENYTOIN, Phenytoin]	45.01
CC1(C)O[C@@H]2[C@@H](CO[C@@]3(COS(N)(=O)=O)OC(C)(C)O[C@@H]23)O1 [TOPIRAMATE, Topiramate]	38.97
